This test addresses T1, human full-length MKNK1 (Homo sapiens, UniProt Q9BUB5, T385D).
T1 construct: GST (N); purchased Carna Biosciences 02-145; host or cells: insect cells (baculovirus expression system)
In words: MKNK1 kinase high ATP assay (TR-FRET). In kind it is biochemical. The note with it: Table 1; MKNK1 kinase high ATP assay, 2 mM ATP; read-out: MKNK1 IC50. Put shortly:
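Full-length human MKNK1 (T385D) preincubated 15 min at 22 °C with compound in HEPES pH 7.5/MgCl2/DTT buffer; reaction with 2 mM ATP (final) and 0.06 μM biotinylated peptide (final), 30 min at 22 °C.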
(In general: In TR-FRET formats the signal depends on donor and acceptor labels being close together.)

In general, IC50 refers to the concentration needed to halve the response being measured.

T1 sequence (Q9BUB5 1-424 isoform Q9BUB5-2 T344D): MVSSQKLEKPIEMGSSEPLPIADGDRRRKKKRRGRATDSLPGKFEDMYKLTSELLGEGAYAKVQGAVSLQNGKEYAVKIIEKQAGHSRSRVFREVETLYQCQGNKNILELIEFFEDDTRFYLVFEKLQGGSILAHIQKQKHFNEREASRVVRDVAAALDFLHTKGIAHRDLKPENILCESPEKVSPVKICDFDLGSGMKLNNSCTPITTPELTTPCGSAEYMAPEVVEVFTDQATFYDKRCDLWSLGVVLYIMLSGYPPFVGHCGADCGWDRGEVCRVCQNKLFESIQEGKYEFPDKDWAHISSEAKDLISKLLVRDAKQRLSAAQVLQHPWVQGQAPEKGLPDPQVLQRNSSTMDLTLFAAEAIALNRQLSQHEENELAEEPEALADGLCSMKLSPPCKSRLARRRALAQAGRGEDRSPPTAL

Regarding `CC(C)Oc1cc2[nH]ncc2cc1Nc1ncnc2sc3c(c12)CC[C@H](C(=O)N1CC[C@H](N(C)C)C1)C3` [Example 168, [(3S)-3-(dimethylamino)pyrrolidin-1-yl][(7S)-4-{[6-(propan-2-yloxy)-1H-indazol-5-yl]amino}-5,6,7,8-tetrahydro[1]benzothieno[2,3-d]pyrimidin-7-yl]methanone], the IC50 was found to be 0.4 nM.
In the case of `CC(C)Oc1cc2[nH]ncc2cc1Nc1ncnc2sc3c(c12)CC[C@H](C(=O)N1CC[C@@H](N(C)C)C1)C3` [Example 169, [(3R)-3-(Dimethylamino)pyrrolidin-1-yl][(7S)-4-{[6-(propan-2-yloxy)-1H-indazol-5-yl]amino}-5,6,7,8-tetrahydro[1]benzothieno[2,3-d]pyrimidin-7-yl]methanone] it was 0.1 nM; in that of `COc1cc2[nH]ncc2cc1Nc1ncnc2sc3c(c12)CC[C@H](C(=O)N(C)CCCn1ccnc1)C3` [Example 170, (7S)—N-[3-(1H-Imidazol-1-yl)propyl]-4-[(6-methoxy-1H-indazol-5-yl)amino]-N-methyl-5,6,7,8-tetrahydro[1]benzothieno[2,3-d]pyrimidine-7-carboxamide], 0.6 nM.
With `COc1cc2[nH]ncc2cc1Nc1ncnc2sc3c(c12)CC[C@H](C(=O)N(C)CCn1ccnc1)C3` [Example 171, (7S)—N-[2-(1H-Imidazol-1-yl)ethyl]-4-[(6-methoxy-1H-indazol-5-yl)amino]-N-methyl-5,6,7,8-tetrahydro[1]benzothieno[2,3-d]pyrimidine-7-carboxamide], the IC50 is 0.4 nM.
The figure for `CCOc1cc2[nH]ncc2cc1Nc1ncnc2sc3c(c12)CC[C@H](C(=O)N1CC[C@H](N(C)C)C1)C3` [Example 172, [(3S)-3-(Dimethylamino)pyrrolidin-1-yl]{(7S)-4-[(6-ethoxy-1H-indazol-5-yl)amino]-5,6,7,8-tetrahydro[1]benzothieno[2,3-d]pyrimidin-7-yl}methanone] is 0.1 nM; for `CCOc1cc2[nH]ncc2cc1Nc1ncnc2sc3c(c12)CC[C@H](C(=O)N(C)CC(C)(C)C)C3` [Example 173, (7S)—N-(2,2-Dimethylpropyl)-4-[(6-ethoxy-1H-indazol-5-yl)amino]-N-methyl-5,6,7,8-tetrahydro[1]benzothieno[2,3-d]pyrimidine-7-carboxamide] it is 0.4 nM.
In the case of `CCCN(C)C(=O)[C@H]1CCc2c(sc3ncnc(Nc4cc5cn[nH]c5cc4OCC)c23)C1` [Example 174, (7S)-4-[(6-Ethoxy-1H-indazol-5-yl)amino]-N-methyl-N-propyl-5,6,7,8-tetrahydro[1]benzothieno[2,3-d]pyrimidine-7-carboxamide] it was 0.1 nM; in that of `CCOc1cc2[nH]ncc2cc1Nc1ncnc2sc3c(c12)CC[C@H](C(=O)N1CC(N2CCCCC2)C1)C3` [Example 175, {(7S)-4-[(6-Ethoxy-1H-indazol-5-yl)amino]-5,6,7,8-tetrahydro[1]benzothieno[2,3-d]pyrimidin-7-yl}[3-(piperidin-1-yl)azetidin-1-yl]methanone], 0.2 nM; in that of `CN(C)C(=O)[C@H]1CCc2c(sc3ncnc(Nc4cc5cn[nH]c5cc4OCC(C)(C)C)c23)C1` [Example 176, (7S)-4-{[6-(2,2-Dimethylpropoxy)-1H-indazol-5-yl]amino}-N,N-dimethyl-5,6,7,8-tetrahydro[1]benzothieno[2,3-d]pyrimidine-7-carboxamide], 39.8 nM.
In the case of `COc1cc2[nH]ncc2cc1Nc1ncnc2sc3c(c12)CC[C@H](C(=O)N(C)CC(C)(C)C)C3` [Example 177, (7S)—N-(2,2-Dimethylpropyl)-4-[(6-methoxy-1H-indazol-5-yl)amino]-N-methyl-5,6,7,8-tetrahydro[1]benzothieno[2,3-d]pyrimidine-7-carboxamide] it was 2.6 nM; in that of `COc1cc2[nH]ncc2cc1Nc1ncnc2sc3c(c12)CC[C@H](C(=O)N1CC(N2CCCCC2)C1)C3` [Example 178, {(7S)-4-[(6-Methoxy-1H-indazol-5-yl)amino]-5,6,7,8-tetrahydro[1]benzothieno[2,3-d]pyrimidin-7-yl}[3-(piperidin-1-yl)azetidin-1-yl]methanone], 0.2 nM; in that of `COc1cc2[nH]ncc2cc1Nc1ncnc2sc3c(c12)CC[C@H](C(=O)N1CC[C@@H](N(C)C)C1)C3` [Example 179, [(3R)-3-(Dimethylamino)pyrrolidin-1-yl]{(7S)-4-[(6-methoxy-1H-indazol-5-yl)amino]-5,6,7,8-tetrahydro[1]benzothieno[2,3-d]pyrimidin-7-yl}methanone], 0.4 nM.
As to `CN(C)C(=O)[C@H]1CCc2c(sc3ncnc(Nc4cc5cn[nH]c5cc4OCCCNC(=O)OC(C)(C)C)c23)C1` [Example 180, tert-Butyl {3-[(5-{[(7S)-7-(dimethylcarbamoyl)-5,6,7,8-tetrahydro[1]benzothieno[2,3-d]pyrimidin-4-yl]amino}-1H-indazol-6-yl)oxy]propyl}carbamate], the IC50 turned out to be 0.4 nM.
For `CN(C)C(=O)[C@H]1CCc2c(sc3ncnc(Nc4cc5cn[nH]c5cc4Br)c23)C1` [Example 181, (7S)-4-[(6-Bromo-1H-indazol-5-yl)amino]-N,N-dimethyl-5,6,7,8-tetrahydro[1]benzothieno[2,3-d]pyrimidine-7-carboxamide], the half-inhibitory concentration (IC50) turned out to be 3.6 nM.
The figure for `CN(C)C(=O)[C@H]1CCc2c(sc3ncnc(Nc4cc5cn[nH]c5cc4Cl)c23)C1` [Example 182, (7S)-4-[(6-Chloro-1H-indazol-5-yl)amino]-N,N-dimethyl-5,6,7,8-tetrahydro[1]benzothieno[2,3-d]pyrimidine-7-carboxamide] is 5.3 nM; for `C[C@@H]1CN(C(=O)[C@H]2CCc3c(sc4ncnc(Nc5cc6cn[nH]c6cc5N5CCCC5)c34)C2)C[C@H](C)O1` [Example 183, [(2R,6S)-2,6-Dimethylmorpholin-4-yl][(7S)-4-{[6-(pyrrolidin-1-yl)-1H-indazol-5-yl]amino}-5,6,7,8-tetrahydro[1]benzothieno[2,3-d]pyrimidin-7-yl]methanone] it is 0.7 nM; for `C[C@@H]1COCCN1C(=O)[C@H]1CCc2c(sc3ncnc(Nc4cc5cn[nH]c5cc4N4CCCC4)c23)C1` [Example 184, [(3R)-3-Methylmorpholin-4-yl][(7S)-4-{[6-(pyrrolidin-1-yl)-1H-indazol-5-yl]amino}-5,6,7,8-tetrahydro[1]benzothieno[2,3-d]pyrimidin-7-yl]methanone] it is 0.4 nM.
In the case of `C[C@H]1COCCN1C(=O)[C@H]1CCc2c(sc3ncnc(Nc4cc5cn[nH]c5cc4N4CCCC4)c23)C1` [Example 185, [(3S)-3-Methylmorpholin-4-yl][(7S)-4-{[6-(pyrrolidin-1-yl)-1H-indazol-5-yl]amino}-5,6,7,8-tetrahydro[1]benzothieno[2,3-d]pyrimidin-7-yl]methanone] it was 0.6 nM; in that of `CN(C)C(=O)[C@H]1CCc2c(sc3ncnc(Nc4cc5cn[nH]c5cc4S(C)(=O)=O)c23)C1` [Example 186, (7S)—N,N-Dimethyl-4-{[6-(methylsulfonyl)-1H-indazol-5-yl]amino}-5,6,7,8-tetrahydro[1]benzothieno[2,3-d]pyrimidine-7-carboxamide], 44.7 nM.
Turning to `C[C@@H]1COCCN1C(=O)[C@H]1CCc2c(sc3ncnc(Nc4cc5cn[nH]c5cc4N(C)C)c23)C1` [Example 187, [(7S)-4-{[6-(Dimethylamino)-1H-indazol-5-yl]amino}-5,6,7,8-tetrahydro[1]benzothieno[2,3-d]pyrimidin-7-yl][(3R)-3-methylmorpholin-4-yl]methanone], the half-inhibitory concentration (IC50) was determined as 0.2 nM.
The figure for `C[C@H]1COCCN1C(=O)[C@H]1CCc2c(sc3ncnc(Nc4cc5cn[nH]c5cc4N(C)C)c23)C1` [Example 188, [(7S)-4-{[6-(Dimethylamino)-1H-indazol-5-yl]amino}-5,6,7,8-tetrahydro[1]benzothieno[2,3-d]pyrimidin-7-yl][(3S)-3-methylmorpholin-4-yl]methanone] is 0.3 nM; for `C[C@@H]1CN(C(=O)[C@H]2CCc3c(sc4ncnc(Nc5cc6cn[nH]c6cc5N(C)C)c34)C2)C[C@H](C)O1` [Example 189, [(7S)-4-{[6-(Dimethylamino)-1H-indazol-5-yl]amino}-5,6,7,8-tetrahydro[1]benzothieno[2,3-d]pyrimidin-7-yl][(2R,6S)-2,6-dimethylmorpholin-4-yl]methanone] it is 0.1 nM.
The figure for `CCOc1cc2[nH]ncc2cc1Nc1ncnc2sc3c(c12)CC[C@H](C(=O)N1CC[C@@H](N(C)C)C1)C3` [Example 190, [(3R)-3-(Dimethylamino)pyrrolidin-1-yl]{(7S)-4-[(6-ethoxy-1H-indazol-5-yl)amino]-5,6,7,8-tetrahydro[1]benzothieno[2,3-d]pyrimidin-7-yl}methanone] is 0.3 nM; for `CN(C)C(=O)[C@H]1CCc2c(sc3ncnc(Nc4cc5cn[nH]c5cc4OC(F)(F)F)c23)C1` [Example 191, (7S)—N,N-Dimethyl-4-{[6-(trifluoromethoxy)-1H-indazol-5-yl]amino}-5,6,7,8-tetrahydro[1]benzothieno[2,3-d]pyrimidine-7-carboxamide] it is 1.4 nM.
The figure for `CCCSc1cc2[nH]ncc2cc1Nc1ncnc2sc3c(c12)CC[C@H](C(=O)N(C)C)C3` [Example 192, (7S)—N,N-Dimethyl-4-{[6-(propylsulfanyl)-1H-indazol-5-yl]amino}-5,6,7,8-tetrahydro[1]benzothieno[2,3-d]pyrimidine-7-carboxamide] is 2.2 nM.
For the compound `CN(C)C(=O)[C@H]1CCc2c(sc3ncnc(Nc4cc5cn[nH]c5cc4OCCN4CCCC4=O)c23)C1` [Example 193, (7S)—N,N-Dimethyl-4-({6-[2-(2-oxopyrrolidin-1-yl)ethoxy]-1H-indazol-5-yl}amino)-5,6,7,8-tetrahydro[1]benzothieno[2,3-d]pyrimidine-7-carboxamide], the IC50 stood at 222 nM.

These data come from US20160297833A1, “THIENOPYRIMIDINES AS MKNK1 AND MKNK2 INHIBITORS” (BAYER PHARMA AKTIENGESELLSCHAFT, priority 2013, published 2016).
